Common to all, as to type: cell-based, murine
The test system of one experiment is B16F10 melanoma cells. Briefly: Visual pigmentation of B16F10 cells and culture medium. The conditions noted are these: 10-50 μg/ml, 5 days, medium change at day 3. The method, then: B16F10 melanoma cells were treated with 10-50 μg/ml peptide of SEQ ID NO: 1 (“Lf B-17-34”) for 5 days with a medium change at day 3. The cells and medium were recovered in test tubes. Kojic acid is used as negative control in the cellular study due to known inhibitory effects on tyrosinase activity. IBMX is used as positive control in the cellular study due to known elevator of cellular cAMP level, to stimulate melanogenesis.
(§1) B16F10 murine melanoma cells were cultured in phenol red-free DMEM with 10% fetal bovine serum and penicillin/streptomycin (100 IU/50 […]) in a humidified atmosphere containing 5% CO2 in air at 37° C.

The next experiment relates to B16F10 cells. Briefly: Melanin content assay. The conditions noted are these: 10-50 μg/ml, 5 days. The method, then:
as §1
Melanin contents of cultured B16F10 cells were measured according to the method (Lee et al., J Invest Dermatol 124, 405-411, 2005) with a slight modification. Briefly, B16F10 cells were seeded in 6-well plate (2×10^4 cells/well) and incubated overnight to allow cells to adhere. After treating with various test samples in an incubator for 5 days, washed, trypsinized and counted before pelleting. Melanin per cell was quantified after boiling in 1 M NaOH for 1 hour and melanin content in each sample was read from a calibration curve against synthetic eumelanin at 400 nm and converted to means±SE melanin pg/cell from 3 independent experiments.

Experiment [1] relates to Tyrosinase. As to the kind of experiment: Tyrosinase assay (cell lysate, L-DOPA). The conditions noted are these: B16F10 cells, 10-50 μg/ml, 5 days. The method, then:
as §1
Tyrosinase is the rate limiting enzyme in the melanogenic pathway. Its measurement provides a highly specific and sensitive indication of degree of induction of melanogenesis. Tyrosinase enzyme activity of cultured B16F10 cells were measured according to the method of (Bellei et al., J Biol Chem 285, 7288-7299, 2010) with a slight modification. Briefly, B16F10 cells were seeded in 6-well plate (2×10^4 cells/well) and incubated overnight to allow cells to adhere. After treating with various test samples in an incubator for 5 days, cells were washed with PBS and then harvested using trypsin. At the end point, the cells were solubilized with phosphate buffer (pH 6.8) containing 1% Triton X-100. The cells were then disrupted by freezing and thawing, and the lysates were clarified by centrifugation at 10,000×g for 10 min. After protein quantification and adjustment of protein concentrations with lysis buffer, 100 μl of each lysate (each containing the same amount of protein) were aliquoted into the wells of a 96-well plate, and 100 μl of 5 mM L-DOPA were then added to each well. The absorbance was measured spectrophotometrically at 475 nm following a […] incubation period at 37° C. […]

Experiment [2] concerns Tyrosinase. Briefly: DOPA staining. The conditions noted are these: B16F10 cells, 10-50 μg/ml, 4 days. The method, then:
as §1
DOPA staining was also performed to measure tyrosinase enzyme activity. B16F10 cells were seeded in 6-well plate (2×10^4 cells/well) and incubated overnight to allow cells to adhere. After treating with various test samples in an incubator for 4 days, cells were washed with PBS, fixation with 2% paraformaldehyde and washing with PBS a further three times, the cells were incubated with 0.1% DOPA (dissolved in 0.1 M PBS) at 37° C. for 5 hour, and observed using light microscopy (Wang et al., Exp Ther Med 6, 967-972, 2013).

For “FKCRRWQWRMKKLGAPSI (listed as Bos taurus) [Lf B-17-34]”, the “pigmentation in cells and in medium” value in the experiment with B16F10 melanoma cells is listed as “hyper pigmentation in cells as in medium to a similar extent”. Also, in the experiment with B16F10 cells, the “melanin synthesis (melanin content in cells, melanin secretion in medium)” value is “significantly increased melanin synthesis in a concentration-dependent manner”. The tyrosinase activity entry with Tyrosinase [1] is given as “significantly increased tyrosinase activity”. For the same sequence, the DOPA staining result in the experiment with Tyrosinase [2] is on record as “strong DOPA staining”.

The values are drawn from patent US9895303B2, “Peptide, method and composition for stimulating melanogenesis” (Renorigin Innovation Institute Co., Ltd., priority 2016, dated 2018).
